Our source for the IC50 values is patent US20260234165A1, “MACROCYCLIC COMPOUNDS, PREPARATION METHOD THEREFOR, AND USE THEREOF” (GENFLEET THERAPEUTICS (SHANGHAI) INC., priority 2004, published 2026).

Holding throughout (type): cell-based, human
Assay [1] has as its system p-ERK in NCI-H441 cells (KRAS G12V mutation). Kind of assay: Cell p-ERK assay (HTRF) in NCI-H441 cells. Particulars: NCI-H441 cells, 3 h compound incubation, HTRF p-ERK T202/Y204, read-out: H441 p-ERK IC50. Put shortly: (§1)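 Cells are plated (AsPC-1 at 10000, NCI-H441 at 20000 per well) and cultured overnight. Next day compound is added in a 3.16-fold dilution series with 0.1% DMSO and left 3 h. After lysis, p-ERK antibodies incubate 4 h before HTRF reading and four-parameter IC50 fitting.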
In general terms: In TR-FRET formats the signal depends on donor and acceptor labels being close together.

Assay [2] relates to p-ERK in AsPC-1 cells (KRAS G12D mutation). Kind of assay: Cell p-ERK assay (HTRF) in AsPC-1 cells. Particulars: AsPC-1 cells, 3 h compound incubation, HTRF p-ERK T202/Y204, read-out: AsPC-1 p-ERK IC50. The procedure, abridged:
as §1

Assay [3] concerns AsPC-1 cells (KRAS G12D mutation). Kind of assay: 3D cell proliferation assay (CellTiter Glo-3D), AsPC-1. Particulars: medium with 2% FBS, read-out: AsPC-1 AP IC50. Put shortly:
(§2)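 Cells were seeded at 800 per well in RPMI-1640 containing 2% FBS and left overnight. Compounds in 3.16-fold dilution series were then added at 0.1% DMSO and incubated 5 days at 37 °C. Viability was read by CellTiter-Glo 3D luminescence and IC50 values fitted by four-parameter regression.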
For orientation: Cellular ATP, detected with luciferase, serves as a proxy for viable cell number.

In the next assay the test system is NCI-H441 cells. Kind of assay: 3D cell proliferation assay (CellTiter Glo-3D), NCI-H441. Conditions: medium with 2% FBS, read-out: H441 AP IC50. The procedure, abridged: as §2
The mark [4] stands for this setting: 3D cell proliferation (CellTiter Glo-3D).
Setting [5] is: Homo sapiens, ASPC1, 3D cell proliferation (CellTiter Glo-3D).
[6] abbreviates: Homo sapiens, NCI-H441, 3D cell proliferation (CellTiter Glo-3D).

Counter-ions that a name gives are not always drawn. Like-named read-outs stand apart in the source and are kept apart here.

By IC50 is commonly meant the concentration that inhibits the measured activity by half. As for `C=C1CN(CC#Cc2cnc([C@H](C)OC)c(-c3c4c5cc(ccc5n3CC)-c3csc(n3)C[C@H](NC(=O)[C@H]3[C@H](C)[C@@H]3C)C(=O)N3CCC[C@H](N3)C(=O)OCC(C)(C)C4)c2)C1` [Compound Z1034, (1 r,2R,3S)—N-((6^3S,4S,Z)-1^1-ethyl-1^2-(2-((S)-1-methoxyethyl)-5-(3-(3-methyleneazetidine-1-yl)prop-1-Sn-1-yl)pyridin-3-yl)-10,10-dimethyl-5,7-dioxo-6^1,6^2,6^3,6^4,6^5,6^6-hexahydro-1^1H-8-oxa-2(4.2)-thiazola-1(5,3)-indola-6(1.3)-pyridazinacycloundecaphane-4-yl)-2,3-dimethylcyclopropane-1-carboxamide], the IC50 in assay [1] was 0.29 nM; in assay [2], 0.33 nM; in assay [3] (setting [4]), 0.2 nM; in the assay on NCI-H441 cells (setting [4]) it was 0.28 nM.

In the case of `CCn1c(-c2cc(N3CCN(C4(c5cccc(C)n5)CC4)CC3)cnc2[C@H](C)OC)c2c3cc(ccc31)-c1csc(n1)C[C@H](NC(=O)[C@H]1[C@H](C)[C@@H]1C)C(=O)N1CCC[C@H](N1)C(=O)OCC(C)(C)C2` [Compound Z81, (1r,2R,3S)—N-((6^3S,4S,Z)-1^1-ethyl-2-(2-((S)-1-methoxyethyl)-5-(4-(1-(6-methylpyridin-2-yl)cyclopropyl)piperazin-1-yl)pyridin-3-yl)-10-10-dimethyl-5,7-dioxo-6^1,6^2,6^3,6^4,6^5,6^6-hexahydro-1^1H-8-oxa-2(4,2)-thiazola-1(5,3)-indola-6(1,3)-pyridazinacycloundecaphane-4-yl)-2,3-dimethylcyclopropane-1-carboxamide formate], the IC50 in assay [1] (Homo sapiens, NCI-H441, 3 h) worked out at 1.7 nM; in assay [2] (Homo sapiens, ASPC1, 3 h) it was 2.01 nM; in assay [3] (setting [5]), 3.42 nM; in the assay with NCI-H441 cells (setting [6]), 2.03 nM.

With `CCn1c(-c2cc(OCC3(CN4CCCOCC4)CC3)cnc2[C@H](C)OC)c2c3cc(ccc31)-c1csc(n1)C[C@H](NC(=O)[C@H]1[C@H](C)[C@@H]1C)C(=O)N1CCC[C@H](N1)C(=O)OCC1(CC1)C2` (atropisomer, axis not shown; (Ra)) [Compound Z498], the IC50 in assay [1] (Homo sapiens, NCI-H441, 3 h) came out at 4.06 nM; in assay [2] (Homo sapiens, ASPC1, 3 h), 10.9 nM; in assay [3] (setting [5]) it was 8.99 nM; in the assay on NCI-H441 cells (setting [6]), 5.58 nM.

Regarding `CC[C@@H](C)C(=O)N[C@H]1Cc2nc(cs2)-c2ccc3c(c2)c(c(-c2cc(OCCN4CCS(=O)(=O)CC4)cnc2[C@H](C)OC)n3CC)CC(C)(C)COC(=O)[C@@H]2CCCN(N2)C1=O` (atropisomer, axis not shown; (Ra)) [Compound Z610, (2R)—N-((6^3S,4S,Z)—(Ra)-1^2-(5-(2-(1,1-dioxidothiomorpholino)ethoxy)-2-((S)-1-methoxyethyl)pyridin-3-yl)-1^1-ethyl-10,10-dimethyl-5,7-dioxo-6^1,6^2,6^3,6^4,6^5,6^6-hexahydro-1^1H-8-oxa-2(4,2)-thiazola-1(5,3)-indola-6(1,3)-pyridazinacycloundecaphane-4-yl)-2-methylbutanamide], the IC50 in assay [1] (Homo sapiens, NCI-H441, 3 h) turned out to be 0.57 nM; in assay [2] (Homo sapiens, ASPC1, 3 h), 0.71 nM; in assay [3] (setting [5]), 1.37 nM; in the assay with NCI-H441 cells (setting [6]), 0.32 nM.

On to `CCn1c(-c2cc(C#CCN3CCCOCC3)c[n+]([O-])c2[C@H](C)O)c2c3cc(ccc31)-c1csc(n1)C[C@H](NC(=O)[C@H]1[C@H](C)[C@@H]1C)C(=O)N1CCC[C@H](N1)C(=O)OCC(C)(C)C2` (single isomer, unassigned) [Compound Z1039], for which the IC50 came out at 0.51 nM in assay [1] (Homo sapiens, NCI-H441, 3 h); 0.95 nM in assay [2] (Homo sapiens, ASPC1, 3 h); 1.28 nM in assay [3] (setting [5]); 1.21 nM with NCI-H441 cells (setting [6]).

Take `CCn1c(-c2cc(C3(N(C)C(=O)CN(C)C)CC3)cnc2[C@H](C)OC)c2c3cc(ccc31)-c1csc(n1)C[C@H](NC(=O)[C@H]1[C@H](C)[C@@H]1C)C(=O)N1CCC[C@H](N1)C(=O)OCC(C)(C)C2` [Compound Z372, (1r,2R,3S)—N-((6^3S,4S,Z)-1^2-(5-(1-(2-(dimethylamino)-N-methylacetamido)cyclopropyl)-2-((S)-1-methoxyethyl)pyridin-3-yl)-1^1-ethyl-10,10-dimethyl-5,7-dioxo-6^1,6^2,6^3,6^4,6^5,6^6-hexahydro-1^1H-8-oxa-2(4,2)-thiazola-1(5,3)-indola-6(1,3)-pyridazinacycloundecaphane-4-yl)-2,3-dimethylcyclopropane-1-carboxamide]: the IC50 in assay [1] (Homo sapiens, NCI-H441, 3 h) came out at 14 nM; in assay [2] (Homo sapiens, ASPC1, 3 h) it was 31.4 nM; in assay [3] (setting [5]) it was 15.3 nM; in the assay on NCI-H441 cells (setting [6]), 6.8 nM.

Regarding `CCn1c(-c2cc(C#CCN3CC(OC)C3)cnc2[C@H](C)OC)c2c3cc(ccc31)-c1csc(n1)C[C@H](NC(=O)[C@H]1[C@H](C)[C@@H]1C)C(=O)N1CCC[C@H](N1)C(=O)OCC(C)(C)C2` (atropisomer, axis not shown; (Ra)) [Compound Z945, (1r,2R,3S)—N-((6^3S,4S,Z)-1^1-ethyl-1^2-(5-(3-(3-methoxyazetidin-1-yl)prop-1-yn-1-yl)-(Ra)-2-((S)-1-methoxyethyl)pyridin-3-yl)-10,10-dimethyl-5,7-dioxo-6^1,6^2,6^3,6^4,6^5,6^6-hexahydro-1^1H-8-oxa-2(4,2)-thiazola-1(5,3)-indola-6(1,3)-pyridazinacycloundecaphane-4-yl)-2,3-dimethylcyclopropane-1-carboxamide], the IC50 was 0.18 nM in assay [1] (Homo sapiens, NCI-H441, 3 h); 0.28 nM in assay [2] (Homo sapiens, ASPC1, 3 h); 0.23 nM in assay [3] (setting [5]); 0.23 nM in the assay with NCI-H441 cells (setting [6]).

Turning to `CCc1ccn2c(N[C@H]3Cc4nc(cs4)-c4ccc5c(c4)c(c(-c4cc(N6CCN(C)CC6)cnc4[C@H](C)OC)n5CC)CC(C)(C)COC(=O)[C@@H]4CCCN(N4)C3=O)nnc2c1` (atropisomer, axis not shown; (Ra)) [Compound Z662, (6^3S,4S,Z)-1^1-ethyl-4-((7-ethyl-[1,2,4]triazolo[4,3-a]pyridin-3-yl)amino)-(Ra)-1^2-(2-((S)-1-methoxyethyl)-5-(4-methylpiperazin-yl)pyridin-3-yl)-10,10-dimethyl-6^1,6^2,6^3,6^4,6^5,6^6-hexahydro-1^1H-8-oxa-2(4,2)-thiazola-1(5,3)-indola-6(1,3)-pyridazinacycloundecaphane-5,7-dione], the IC50 worked out at 5.4 nM in assay [1] (Homo sapiens, NCI-H441, 3 h); 34.4 nM in assay [2] (Homo sapiens, ASPC1, 3 h); 67 nM in assay [3] (setting [5]); 11 nM with NCI-H441 cells (setting [6]).

As for `CCn1c(-c2cc(OCC3(N4CCS(=O)(=O)CC4)CC3)cnc2[C@H](C)OC)c2c3cc(ccc31)-c1csc(n1)C[C@H](NC(=O)[C@H]1[C@H](C)[C@@H]1C)C(=O)N1CCC[C@H](N1)C(=O)OCC(C)(C)C2` (atropisomer, axis not shown; (Ra)) [Compound Z614, (1r,2R,3S)—N-((6^3S,4S,Z)-1^2-(5-((1-(1,1-dioxidothiomorpholino)cyclopropyl)methoxy)-2-((S)-1-methoxyethyl)pyridin-3-yl)-1^1-ethyl-(Ra)-10,10-dimethyl-5,7-dioxo-6^1,6^2,6^3,6^4,6^5,6^6-hexahydro-1^1hydrogen-8-oxa-2(4,2)-thiazola-1(5,3)-indola-6(1,3)-pyridazinacycloundecaphane-4-yl)-2,3-dimethylcyclopropane-1-carboxamide], the IC50 in assay [1] (Homo sapiens, NCI-H441, 3 h) was 0.23 nM; in assay [2] (Homo sapiens, ASPC1, 3 h) it was 0.09 nM; in assay [3] (setting [5]), 0.11 nM; in the assay on NCI-H441 cells (setting [6]), 0.15 nM.

For `CCn1c(-c2cc(C#CC(C)(C)N3CCCOCC3)cnc2[C@H](C)OC)c2c3cc(ccc31)-c1csc(n1)C[C@H](NC(=O)[C@H]1[C@H](C)[C@@H]1C)C(=O)N1CCC[C@H](N1)C(=O)OCC(C)(C)C2` (atropisomer, axis not shown; (Ra)) [Compound Z625, (1r,2R,3S)—N-((6S,4S,Z)-1^1-ethyl-(Ra)-1^2-(2-((S)-1-methoxyethyl)-5-(3-(1,4-oxazepan-4-yl)-3-methylbut-1-yn-1-yl)pyridin-3-yl)-10,10-dimethyl-5,7-dioxo-6^1,6^2,6^3,6^4,6^5,6^6hexahydro-1^1H-8-oxa-2(4,2)-thiazola-1(5,3)-indola-6(1,3)-pyridazinacycloundecaphane-4-yl)-2,3-dimethylcyclopropane-1-carboxamide], the IC50 turned out to be 0.2 nM in assay [1] (Homo sapiens, NCI-H441, 3 h); 0.33 nM in assay [2] (Homo sapiens, ASPC1, 3 h); 0.36 nM in assay [3] (setting [5]); 0.24 nM in the assay on NCI-H441 cells (setting [6]).

Consider `CCn1c(-c2cc(C#CC3(N4CCC4)CC3)cnc2[C@H](C)OC)c2c3cc(ccc31)-c1csc(n1)C[C@H](NC(=O)[C@H]1[C@H](C)[C@@H]1C)C(=O)N1CCC[C@H](N1)C(=O)OCC(C)(C)C2` (atropisomer, axis not shown; (Ra)) [Compound Z836-1, (1r,2R,3S)—N-((4S,Z)—(Ra)-1^2-(5-((1-(azetidin-1-yl)cyclopropyl)ethynyl)-2-((S)-1-methoxyethyl)pyridin-3-yl)-1^1-ethyl-10,10-dimethyl-5,7-dioxo-6^1,6^2,6^3,6^4,6^5,6^6-hexahydro-1^1H-8-oxa-2(4,2)-thiazola-1(5,3)-indola-6(1,3)-pyridazinacycloundecaphane-4-yl)-2,3-dimethylcyclopropane-1-carboxamide], for which the IC50 was determined as 0.83 nM in assay [1], 0.5 nM in assay [2], 1.05 nM in assay [3] (setting [4]) and 0.64 nM in the assay with NCI-H441 cells (setting [4]).
